Read-outs that look alike come from different tables or passages of the source.
Assays:
GLP-1R = GLP-1R (Homo sapiens, UniProt P43220); assay: GLP-1R activation: cAMP increase in CHO cells stably expressing GLP-1R; format: cell-based; conditions: read-out: EC50
[1] = Microsomal stability, human liver microsomes (predicted hepatic clearance); conditions: predicted from in vitro microsomal stability data
[2] = cAMP increase, CHO cells stably expressing GLP-1R, 10 point dose response, 30 minutes incubation

Sequence of GLP-1R (P43220 24-463): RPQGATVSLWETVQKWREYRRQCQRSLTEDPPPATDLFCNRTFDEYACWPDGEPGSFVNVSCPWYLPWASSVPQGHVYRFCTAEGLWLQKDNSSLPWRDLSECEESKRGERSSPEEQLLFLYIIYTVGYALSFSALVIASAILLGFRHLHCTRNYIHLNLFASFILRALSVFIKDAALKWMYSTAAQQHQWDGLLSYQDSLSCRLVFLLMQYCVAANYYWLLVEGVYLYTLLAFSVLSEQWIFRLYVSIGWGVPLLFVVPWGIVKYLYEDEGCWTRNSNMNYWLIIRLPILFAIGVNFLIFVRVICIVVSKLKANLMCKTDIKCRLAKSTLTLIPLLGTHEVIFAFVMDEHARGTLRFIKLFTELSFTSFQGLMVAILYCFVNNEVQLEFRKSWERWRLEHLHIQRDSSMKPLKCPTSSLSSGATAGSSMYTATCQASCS

SMILES	EC50 (GLP-1R; [2]) [nM]	Predicted Hepatic Clearance (Pred. Cl.) [1] [L/h/kg]	EC50 (GLP-1R) [nM]
COC[C@H]1C[C@@H](n2c(Cc3cc(F)c(-c4cccc(OCc5ccc(C#N)cc5F)n4)cc3F)nc3ccc(C(=O)O)cc32)C1 [Example 734]	168	0.48	
CS(=O)(=O)N1CCC[C@@H]1Cn1c(Cc2cc(F)c(-c3cccc(OCc4ccc(C#N)cc4F)n3)cc2F)nc2ccc(C(=O)O)cc21 [Example 735]		0.43	1.7
N#Cc1ccc(COc2cccc(-c3cc(F)c(Cc4nc5ccc(C(=O)O)cc5n4CC45CC(C4)C(C(F)(F)F)O5)cc3F)n2)c(F)c1 (centres unmarked) [Example 737]	1.89	0.11	
N#Cc1ccc(COc2cccc(-c3cc(F)c(Cc4nc5ccc(C(=O)O)cc5n4CC45CCC(CO4)C5)cc3F)n2)c(F)c1 (centres unmarked) [Example 738]	1.87	0.56	
COCCC1(Cn2c(Cc3cc(F)c(-c4cccc(OCc5ccc(C#N)cc5F)n4)cc3F)nc3ccc(C(=O)O)cc32)CC1 [Example 739]	0.74	0.11	
N#Cc1ccc(COc2cccc(-c3cc(F)c(Cc4nc5ccc(C(=O)O)cc5n4CC4CC5CCN4CC5)cc3F)n2)c(F)c1 (centres unmarked) [Example 740]		0.13	1160
N#Cc1ccc(COc2cccc(-c3cc(F)c(Cc4nc5ccc(C(=O)O)cc5n4CC45CCN(CC4)C5)cc3F)n2)c(F)c1 [Example 742]	54.8	0.11	
COCC1(Cn2c(Cc3cc(F)c(-c4cccc(OCc5ccc(C#N)cc5F)n4)cc3F)nc3ccc(C(=O)O)cc32)CCC1 [Example 743]	2.48	0.40	
CO[C@H]1C[C@@H](Cn2c(Cc3cc(F)c(-c4cccc(OCc5ccc(C#N)cc5F)n4)cc3F)nc3ccc(C(=O)O)cc32)C1 [Example 744]	10.6	0.11	
CO[C@H]1C[C@H](Cn2c(Cc3cc(F)c(-c4cccc(OCc5ccc(C#N)cc5F)n4)cc3F)nc3ccc(C(=O)O)cc32)C1 [Example 745]	83.5	0.11	
COC1(Cn2c(Cc3cc(F)c(-c4cccc(OCc5ccc(C#N)cc5F)n4)cc3F)nc3ccc(C(=O)O)cc32)CC1 [Example 746]	0.87	0.30	
COC1(Cn2c(Cc3cc(F)c(-c4cccc(OCc5ccc(C#N)cc5F)n4)cc3F)nc3ccc(C(=O)O)cc32)CCC1 [Example 747]	0.81	0.44	
Cc1nnc(Cn2c(Cc3cc(F)c(-c4cccc(OCc5ccc(C#N)cc5F)n4)cc3F)nc3ccc(C(=O)O)cc32)o1 [Example 748]	1320	0.11	
O=C(O)c1ccc2nc(Cc3c(F)cc(-c4cccc(OCc5ccc(C(F)F)cc5F)n4)c(F)c3F)n(Cc3ncco3)c2c1 [Example 749]	0.33	0.26	
COCCn1c(Cc2c(F)cc(-c3cccc(OCc4ccc(C(F)F)cc4F)n3)c(F)c2F)nc2ccc(C(=O)O)cc21 [Example 750]	1.26	0.25	
N#CCC1(Cn2c(Cc3cc(F)c(-c4ccnc(OCc5ccc(C(F)F)cc5F)n4)cc3F)nc3ccc(C(=O)O)cc32)CC1 [Example 751]	0.19	0.43	
COCCn1c(Cc2cc(F)c(-c3ccc(F)c(OCc4ccc(C(F)F)cc4F)n3)cc2F)nc2ccc(C(=O)O)cc21 [Example 752]	0.51	0.11	

SMILES	EC50 (GLP-1R; [2]) [nM]	Predicted Hepatic Clearance (Pred. Cl.) [1] [L/h/kg]	EC50 (GLP-1R) [nM]
COCCn1c(Cc2cc(F)c(-c3cccc(OCc4ccc(C#N)cc4F)n3)cc2CO)nc2ccc(C(=O)O)cc21 [Example 753]	0.74	0.62	
O=C(O)c1ccc2nc(Cc3cc(F)c(-c4nccc(OCc5ccc(C(F)(F)F)cc5F)n4)cc3F)n(C[C@@H]3CCO3)c2c1 [Example 754]	0.15	0.36	
N#Cc1cc(F)c(COc2ccnc(-c3cc(F)c(Cc4nc5ccc(C(=O)O)cc5n4C[C@@H]4CCO4)cc3F)n2)cc1F [Example 755]	0.42	0.59	
O=C(O)c1ccc2nc(Cc3c(F)cc(-c4cccc(OCc5ccc(C(F)F)cc5F)n4)c(F)c3F)n(CC34CC(CO3)C4)c2c1 [Example 756]	1.42	0.46	
O=C(O)c1ccc2nc(Cc3c(F)cc(-c4cccc(OCc5ccc(C(F)F)cc5F)n4)c(F)c3F)n(C[C@@H]3CCO3)c2c1 [Example 758]	0.03	0.27	
O=C(O)c1ccc2nc(Cc3cc(F)c(-c4cccc(OCc5ccc(Cl)nc5OC(F)F)n4)cc3F)n(C[C@@H]3CCO3)c2c1 [Example 759]	0.64	0.11	
N#Cc1ccc(COc2ccc(F)c(-c3cc(F)c(Cc4nc5c(F)cc(C(=O)O)cc5n4CC4(CF)CC4)cc3F)n2)c(F)c1 [Example 760]	0.26	0.39	
COCCn1c(Cc2cc(F)c(-c3ccc(F)c(OCc4ccc(C(F)(F)F)cc4F)n3)cc2F)nc2c(F)cc(C(=O)O)cc21 [Example 761]	0.51	0.11	
COCCn1c(Cc2cc(F)c(-c3ccc(F)c(OCc4ccc(C(F)F)cc4F)n3)cc2F)nc2c(F)cc(C(=O)O)cc21 [Example 762]	0.9	0.11	
COCCn1c(Cc2cc(F)c(-c3ccc(F)c(OCc4ccc(C#N)cc4F)n3)cc2F)nc2c(F)cc(C(=O)O)cc21 [Example 764]	0.76	0.19	
O=C(O)c1cc(F)c2nc(Cc3cc(F)c(-c4ccc(F)c(OCc5ccc(C(F)(F)F)cc5F)n4)cc3F)n(C[C@@H]3CCO3)c2c1 [Example 765]	0.51	0.11	
N#Cc1cc(F)c(COc2nc(-c3cc(F)c(Cc4nc5c(F)cc(C(=O)O)cc5n4C[C@@H]4CCO4)cc3F)ccc2F)cc1F [Example 766]	0.13	0.18	
O=C(O)c1cc(F)c2nc(Cc3cc(F)c(-c4ccc(F)c(OCc5ccc(C(F)F)cc5F)n4)cc3F)n(C[C@@H]3CCO3)c2c1 [Example 767]	0.51	0.11	
N#Cc1ccc(COc2nc(-c3cc(F)c(Cc4nc5c(F)cc(C(=O)O)cc5n4C[C@@H]4CCO4)cc3F)ccc2F)c(F)c1 [Example 768]	0.04	0.165	
O=C(O)c1cc(F)c2nc(Cc3cc(F)c(-c4nc(OCc5ccc(C(F)F)cc5F)ccc4F)cc3F)n(C[C@@H]3CCO3)c2c1 [Example 769]	0.03	0.22	
O=C(O)c1cc(F)c2nc(Cc3ccc(-c4ccc(F)c(OCc5ccc(C(F)F)cc5F)n4)cc3F)n(CC34CC(CO3)C4)c2c1 [Example 770]	2.62	0.11	
N#Cc1ccc(COc2nc(-c3ccc(Cc4nc5c(F)cc(C(=O)O)cc5n4CC45CC(CO4)C5)c(F)c3)ccc2F)c(F)c1 [Example 771]	2.17	0.11	

Source: patent US11702404B2, “GLP-1R modulating compounds” (priority 2019, dated 2023)
